Measurements as given in US12465605B2, “Methods and materials for gender-dependent treatment of cardiovascular dysfunction” (Mayo Foundation for Medical Education and Research, priority 2019, dated 2025).

Experiments:
sGC = target: T1, sGC (Mus musculus, UniProt O54865); test: sGC signaling (phospho-VASP239) in mouse aortic valve interstitial cells; format: cell-based; conditions: otherwise naïve mVICs, vs vehicle-treated cells
T1 construct: endogenous in cells; host or cells: primary mouse aortic valve interstitial cells (mVICs) from C57BL6/J mice
T1 sequence (O54865 1-620): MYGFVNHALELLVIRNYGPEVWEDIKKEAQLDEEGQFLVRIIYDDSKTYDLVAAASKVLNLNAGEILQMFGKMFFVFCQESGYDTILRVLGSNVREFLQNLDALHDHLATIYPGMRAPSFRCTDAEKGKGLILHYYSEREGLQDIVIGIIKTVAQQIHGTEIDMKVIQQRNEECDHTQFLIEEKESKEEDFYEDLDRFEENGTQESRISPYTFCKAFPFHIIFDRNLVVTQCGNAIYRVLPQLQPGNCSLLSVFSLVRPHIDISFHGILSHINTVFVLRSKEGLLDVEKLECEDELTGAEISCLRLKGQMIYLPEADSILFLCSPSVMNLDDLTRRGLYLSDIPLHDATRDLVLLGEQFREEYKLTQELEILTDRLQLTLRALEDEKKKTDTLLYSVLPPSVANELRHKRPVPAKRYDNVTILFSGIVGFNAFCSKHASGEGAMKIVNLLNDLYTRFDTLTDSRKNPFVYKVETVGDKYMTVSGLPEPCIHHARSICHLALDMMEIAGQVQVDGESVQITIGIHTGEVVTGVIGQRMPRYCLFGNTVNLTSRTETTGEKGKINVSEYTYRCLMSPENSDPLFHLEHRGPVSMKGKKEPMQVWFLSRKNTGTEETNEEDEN
T1 sequence (Q9ERL9 1-691 partner): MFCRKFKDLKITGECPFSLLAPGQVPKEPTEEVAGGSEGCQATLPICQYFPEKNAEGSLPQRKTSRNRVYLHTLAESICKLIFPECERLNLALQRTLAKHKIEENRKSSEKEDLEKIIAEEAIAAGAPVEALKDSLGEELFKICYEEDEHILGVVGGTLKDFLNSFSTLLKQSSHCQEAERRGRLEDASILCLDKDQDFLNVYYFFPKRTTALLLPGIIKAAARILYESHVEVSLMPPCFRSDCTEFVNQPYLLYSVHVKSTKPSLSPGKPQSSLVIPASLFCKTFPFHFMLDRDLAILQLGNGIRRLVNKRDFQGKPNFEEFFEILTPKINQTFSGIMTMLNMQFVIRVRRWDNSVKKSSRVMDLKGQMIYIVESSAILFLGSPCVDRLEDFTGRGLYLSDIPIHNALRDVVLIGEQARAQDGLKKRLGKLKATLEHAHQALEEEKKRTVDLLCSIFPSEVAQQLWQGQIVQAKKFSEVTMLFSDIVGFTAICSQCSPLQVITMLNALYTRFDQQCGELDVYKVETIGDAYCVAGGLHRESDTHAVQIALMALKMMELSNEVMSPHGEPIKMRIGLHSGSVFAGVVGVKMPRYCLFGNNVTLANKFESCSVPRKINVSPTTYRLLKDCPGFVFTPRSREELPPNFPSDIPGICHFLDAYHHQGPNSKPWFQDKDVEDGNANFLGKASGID
Experimental: To confirm that ataciguat effectively activated sGC in cells, mouse aortic valve interstitial cells (mVICs) were isolated from C57BL6/J mice treated with ataciguat or other sGC agonists as internal controls. […] To determine whether ataciguat could attenuate signaling cascades central to the initiation and progression of valve calcification in vitro, cells were treated with BMP2 with or without ataciguat. In these studies, ataciguat reduced phospho-SMAD1/5/8 signaling (e.g., canonical BMP signaling) as well as expression of osteogenic genes induced by BMP2 (e.g., osterix).

[1] = test system: LPA-induced BMP signaling; test: LPA-induced BMP signaling (Osterix mRNA) in aortic valve interstitial cells; format: cell-based; conditions: 18:0 lyso-PA with ataciguat
Experimental: In vitro cell culture studies: Aortic valve interstitial cells were isolated using an outgrowth method, and were expanded in DMEM/F-10 medium with 10% FBS and studied in passages 2-10. Cells were treated for 24 hours under each experimental condition, at which point mRNA was harvested using lysis buffer. After mRNA isolation and reverse transcription, gene expression was measured using quantitative real-time RT-PCR and Taqman primers. Changes in gene expression were assessed by the ddCt method and expressed as fold-change normalized to control conditions.
Additional studies were conducted in aortic valve interstitial cells to examine the effects of ataciguat on LPA-induced BMP signaling and BMP target gene expression. Cells were treated with 18:0 lyso-PA, with or without ataciguat, and Osterix mRNA levels were determined.

sGC-dependent signaling (phospho-VASP^239 levels) (sGC): significantly increased
SMILES: O=C(Nc1ccc(S(=O)(=O)N2CCOCC2)cc1)c1cc(Cl)ccc1NS(=O)(=O)c1ccc(Cl)s1 [ataciguat, 5-chloro-2-[[(5-chloro-2-thienyl)sulfonyl]amino]-N-[4-(4-morpholinylsulfonyl)phenyl]-benzamide]
LPA effect on expression of Osterix [1]: dramatically suppressed
